The results in this text go back to article PMC10996005, “Identification and Development of Cyclic Peptide Inhibitors of Hypoxia Inducible Factors 1 and 2 That Disrupt Hypoxia-Response Signaling in Cancer Cells” (Journal of the American Chemical Society, 2024).

Where a SMILES comes first, the peptide text is derived from it. [ ]: non-standard residue; d: D form. Phe(4-CF3) = N[C@@H](Cc1ccc(C(F)(F)F)cc1)C(=O)O; Phe(4-Br) = N[C@@H](Cc1ccc(Br)cc1)C(=O)O; Phe(4-CN) = N#Cc1ccc(C[C@H](N)C(=O)O)cc1; Phe(4-Cl) = N[C@@H](Cc1ccc(Cl)cc1)C(=O)O; Phe(4-F) = N[C@@H](Cc1ccc(F)cc1)C(=O)O; Phe(4-I) = N[C@@H](Cc1ccc(I)cc1)C(=O)O; 1Nal = N[C@@H](Cc1cccc2ccccc12)C(=O)O; hPhe = N[C@@H](CCc1ccccc1)C(=O)O; 4Pal = N[C@@H](Cc1ccncc1)C(=O)O; Abu = CC[C@H](N)C(=O)O; Aib = CC(C)(N)C(=O)O

T1 sequence (Q16665 238-349 limits assumed): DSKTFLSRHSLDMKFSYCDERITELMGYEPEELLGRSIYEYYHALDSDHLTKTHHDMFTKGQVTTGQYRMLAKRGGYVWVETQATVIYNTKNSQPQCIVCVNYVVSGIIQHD

One assay addresses T1, HIF-1α PAS-B domain (Homo sapiens, UniProt Q16665).
T1 construct: made in house
Nature of the assay: MST binding to the PAS-B domain of HIF-1α. To be noted: KD for HIF-1α PAS-B, MST; mean ± SEM, n = 2 (n = 1 for most C1 analogues, n = 3 in Figure S2). On the procedure: All reagents were purchased from Fisher Scientific or Sigma Aldrich UK unless specified otherwise.
Restriction enzymes and microbiology reagents were purchased from New England Biolabs Inc., Fisher Scientific (UK) or Promega (UK) and were used as directed by the manufacturer. Primers and oligonucleotides were synthesised by Integrated DNA Technologies (UK). DNA sequencing was carried out by Eurofins MWG Operon (Germany).
Construction of the RTHS and SICLOPPS library, screening, purification of recombinant HIF proteins, and the PLA was conducted as previously described in Miranda et al., J. Am. Chem. Soc., 2013, 135(28); […]
Protein labelling with MST dye
Protein was buffer exchanged from storage buffer into labelling buffer (0.1 M NaHCO3, pH 8.5) using a PD spintrap G-25 column (GE healthcare). The protein concentration was then adjusted to 20 µM.
The commercially sourced MST dye (NanoTemper) was prepared as a 470 µM solution in DMSO, which was then further diluted to 60 µM using labelling buffer. To the protein solution was added an equal volume of dye solution, and the labelling reaction was left for 1 hour in the dark at room temperature.
The labelled protein was separated from unreacted dye by elution through a PD minitrap G-25 column (GE healthcare). Labelled protein was then aliquoted and stored at -80 °C. Extent of labelling was measured by the absorbance obtained using the UV-vis mode on a NanoDrop ND-1000 Spectrophotometer (NanoDrop Technologies, USA).
Labelled protein was thawed on ice and diluted to 50 nM in assay buffer containing 50 mM Tris pH 8.0, 150 mM NaCl, 5% (v/v) glycerol, 1 mM TCEP and 0.05% TWEEN-20. The protein solution was then centrifuged at 12000 rpm for 15 minutes at 4 °C and left on ice. Compounds were prepared and serially diluted in DMSO at 10x assay concentration, before diluting to 2x assay concentration in assay buffer.
The 2x compound solutions were then mixed 1:1 (v/v) with 50 nM labelled protein solution and left to incubate for 1 hour at room temperature. Solutions were then loaded into Monolith NT.115 Premium Capillaries (NanoTemper) and placed in the sample tray. MST experiments were carried out
As usually defined, the Kd is the concentration at which binding is half-saturated. For `CC[C@H](C)[C@@H]1NC(=O)[C@H](C(C)C)NC(=O)[C@H](CCCNC(=N)N)NC(=O)[C@H](CS)NC(=O)[C@H](Cc2ccccc2)NC(=O)[C@H]([C@@H](C)CC)NC1=O` [cyclo-CRVIIF] (cyclo(CRVIIF); ring closure inferred), the dissociation constant (Kd) came to 65500 ± 11400 nM.

The assay is the same for the next values; noted with them: MST KD ratio.
Turning to `CC[C@H](C)[C@@H]1NC(=O)[C@H](CC(C)C)NC(=O)[C@H](CCCNC(=N)N)NC(=O)[C@H](CS)NC(=O)[C@H](Cc2ccncc2)NC(=O)[C@H]([C@@H](C)CC)NC1=O` [4-Pal, cyclo-CRLII(4-Pal)] (cyclo([4Pal]CRLII)), the “loss of affinity (KD) compared to cyclo-CRLIIF” value is ~11 fold.
Still for that read-out and setting: the result for `CC[C@H](C)[C@H](NC(C)=O)C(=O)N[C@@H](Cc1ccccc1)C(=O)N[C@@H](CS)C(N)=O` [Ac-IFC-NH2] (Ac-Ile-Phe-Cys-NH2) reads ~10 fold.
With `CC[C@H](C)[C@@H]1NC(=O)[C@H](CC(C)C)NC(=O)[C@H](CCCNC(=N)N)NC(=O)[C@H](CS)NC(=O)[C@H](CCc2ccccc2)NC(=O)[C@H]([C@@H](C)CC)NC1=O` [hF, cyclo-CRLIIhF] (cyclo(CRLII[hPhe])), the “improvement in HIF-1α binding affinity compared to the parent cyclic peptide cyclo-CRLIIF” value came to 3 fold.

The assay is the same for the next values; noted with them: MST KD ratio vs Ac-IFC-NH2.
Turning to `CC[C@H](C)[C@H](NC(C)=O)C(=O)N[C@@H](Cc1ccc(I)cc1)C(=O)N[C@@H](CS)C(N)=O` [Ac-I(4-iodo)FC-NH2] (Ac-Ile-[Phe(4-I)]-Cys-NH2), the “improvement in HIF-1α affinity over the parent tripeptide” value is listed as ~3 fold.

The assay is the same for the next values; noted with them: MST; mean ± SEM, n = 2 (n = 1 for most C1 analogues, n = 3 in Figure S2); read-out: KD for HIF-1α PAS-B.
On to `CC[C@H](C)[C@@H]1NC(=O)[C@H](CC(C)C)NC(=O)[C@H](CCCNC(=N)N)NC(=O)[C@H](CS)NC(=O)[C@H](Cc2cccc3ccccc23)NC(=O)[C@H]([C@@H](C)CC)NC1=O` [1-Nal, cyclo-CRLII(1-Nal)] (cyclo([1Nal]CRLII)), for which the Kd was determined as 1700 ± 500 nM.
On to `CC[C@@H]1NC(=O)[C@H]([C@@H](C)CC)NC(=O)[C@H](CC(C)C)NC(=O)[C@H](CCCNC(=N)N)NC(=O)[C@H](CS)NC(=O)[C@H](Cc2ccccc2)NC1=O` [Abu, cyclo-CRLIAbuF] (cyclo([Abu]FCRLI)), for which the dissociation constant (Kd) was found to be 73400 ± 4800 nM.
Still for that read-out and setting: as for `CC[C@H](C)[C@H](NC(C)=O)C(=O)N[C@@H](Cc1ccc(I)cc1)C(=O)N[C@@H](CS)C(N)=O` [Ac-I(4-iodo)FC-NH2] (Ac-Ile-[Phe(4-I)]-Cys-NH2), the figure is 21500 ± 3000 nM; as for `CC[C@H](C)[C@@H]1NC(=O)[C@H](CC(C)C)NC(=O)[C@H](CCCNC(=N)N)NC(=O)[C@H](CS)NC(=O)[C@H](Cc2ccccc2)NC(=O)C(C)(C)NC1=O` [Aib, cyclo-CRLIAibF] (cyclo([Aib]FCRLI)), 22400 ± 100 nM.
Still for that read-out and setting: as for `CC[C@H](C)[C@@H]1NC(=O)[C@H](CC(C)C)NC(=O)[C@H](CCCNC(=N)N)NC(=O)[C@H](CS)NC(=O)[C@H](Cc2ccc(Br)cc2)NC(=O)[C@H]([C@@H](C)CC)NC1=O` [Br, cyclo-CRLII(4-Br)F] (cyclo(CRLII[Phe(4-Br)])), the figure is 1000 ± 200 nM; as for `CC[C@H](C)[C@@H]1NC(=O)[C@H](CC(C)C)NC(=O)[C@H](CCCNC(=N)N)NC(=O)[C@H](CSC)NC(=O)[C@H](Cc2ccccc2)NC(=O)[C@H]([C@@H](C)CC)NC1=O` [C(Me), cyclo-C(Me)RLIIF] (cyclo(C(Me)RLIIF)), > 50000 nM; as for `CC[C@H](C)[C@@H]1NC(=O)[C@H](CC(C)C)NC(=O)[C@H](CCCNC(=N)N)NC(=O)[C@H](CS)NC(=O)[C@H](Cc2ccc(C(F)(F)F)cc2)NC(=O)[C@H]([C@@H](C)CC)NC1=O` [CF3, cyclo-CRLII(4-CF3)F] (cyclo(CRLII[Phe(4-CF3)])), 1100 ± 500 nM.
Same read-out and setting: as for `CC[C@H](C)[C@@H]1NC(=O)[C@H](CC(C)C)NC(=O)[C@H](CCCNC(=N)N)NC(=O)[C@H](CS)NC(=O)[C@H](Cc2ccc(C#N)cc2)NC(=O)[C@H]([C@@H](C)CC)NC1=O` [CN, cyclo-CRLII(4-CN)F] (cyclo(CRLII[Phe(4-CN)])), the figure is 4400 ± 100 nM; as for `CC[C@H](C)[C@@H]1NC(=O)[C@H](CC(C)C)NC(=O)[C@H](CCCNC(=N)N)NC(=O)[C@H](CS)NC(=O)[C@H](Cc2ccc(Cl)cc2)NC(=O)[C@H]([C@@H](C)CC)NC1=O` [Cl, cyclo-CRLII(4-Cl)F] (cyclo(CRLII[Phe(4-Cl)])), 1200 ± 300 nM; as for `CC[C@H](C)[C@@H]1NC(=O)[C@H](CC(C)C)NC(=O)[C@H](CCCNC(=N)N)NC(=O)[C@H](CS)NC(=O)[C@H](Cc2ccc(F)cc2)NC(=O)[C@H]([C@@H](C)CC)NC1=O` [F, cyclo-CRLII(4-F)F] (cyclo(CRLII[Phe(4-F)])), 1700 ± 200 nM.
As to `CC[C@H](C)[C@@H]1NC(=O)[C@H](CC(C)C)NC(=O)[C@H](CCCNC(=N)N)NC(=O)[C@H](CS)NC(=O)[C@H](CCc2ccccc2)NC(=O)[C@H]([C@@H](C)CC)NC1=O` [hF, cyclo-CRLIIhF] (cyclo(CRLII[hPhe])), the Kd was 1200 ± 700 nM.

The same assay, now with this note: ratio of MST KD values.
With `CC[C@H](C)[C@@H]1NC(=O)[C@H](C(C)C)NC(=O)[C@H](CCCNC(=N)N)NC(=O)[C@H](CS)NC(=O)[C@H](Cc2ccccc2)NC(=O)[C@H]([C@@H](C)CC)NC1=O` [cyclo-CRVIIF] (cyclo(CRVIIF); ring closure inferred), the “selectivity for HIF-1α over HIF-2α” value worked out at 2 fold.
